Measured values: the NIST ThermoML archive (doi:10.1016/j.fluid.2018.05.033)

Experiments:
[1] = for mass density: 101.33 kPa, Liquid, Vibrating tube method; for Normal melting temperature: Crystal, Phase equilibration
[2] = refractive index (Na D-line) (dimensionless); settings: 101.33 kPa, Liquid, Standard Abbe refractometry
[3] = xn = mol fraction of the nth substance listed; settings: 101.3 kPa, Liquid, Vibrating tube method
[4] = refractive index (Na D-line) (dimensionless); xn = mol fraction of the nth substance listed; settings: 101.3 kPa, Liquid, Standard Abbe refractometry

O=S1OCCO1 [1,3,2-dioxathiolane, 2-oxide]
298.15 K
Settings | mass density [kg/m3] | refractive index
[1] | 1432.17 | –
[2] | – | 1.4449

Settings | Normal melting temperature [°C]
[1] | -17.01

O=S1OCCO1 [1,3,2-dioxathiolane, 2-oxide] + CCOC(=O)OC
298.15 K
Settings | mass density, [3] [kg/m3] | refractive index, [4]
x2 = 0.0498 | 1404.65 | 1.4405
x2 = 0.0994 | 1378 | 1.4361
x2 = 0.1993 | 1326.76 | 1.4279
x2 = 0.2998 | 1278.43 | 1.42
x2 = 0.3996 | 1233.17 | 1.4127
x2 = 0.5008 | 1189.88 | 1.4056
x2 = 0.5995 | 1149.94 | 1.3991
x2 = 0.7001 | 1111.21 | 1.3927
x2 = 0.8002 | 1074.73 | 1.3867
x2 = 0.8995 | 1040.17 | 1.381
x2 = 0.9501 | 1023.08 | 1.3782

O=S1OCCO1 [1,3,2-dioxathiolane, 2-oxide] + COC(=O)OC
298.15 K
Settings | mass density, [3] [kg/m3] | refractive index, [4]
x2 = 0.0499 | 1412.39 | 1.4407
x2 = 0.0997 | 1392.6 | 1.4365
x2 = 0.2002 | 1353.25 | 1.4283
x2 = 0.2999 | 1314.96 | 1.4202
x2 = 0.4 | 1277.01 | 1.4123
x2 = 0.4997 | 1239.88 | 1.4044
x2 = 0.6004 | 1202.89 | 1.3965
x2 = 0.6998 | 1166.91 | 1.3889
x2 = 0.8009 | 1130.5 | 1.3811
x2 = 0.9002 | 1095.66 | 1.3737
x2 = 0.9505 | 1078.06 | 1.37

O=S1OCCO1 [1,3,2-dioxathiolane, 2-oxide] + O=C1CCCO1
298.15 K
Settings | mass density, [3] [kg/m3] | refractive index, [4]
x2 = 0.0501 | 1417.36 | 1.4443
x2 = 0.1008 | 1401.19 | 1.4437
x2 = 0.2006 | 1369.54 | 1.4425
x2 = 0.2991 | 1338.59 | 1.4414
x2 = 0.4102 | 1303.97 | 1.4402
x2 = 0.4994 | 1276.38 | 1.4392
x2 = 0.5998 | 1245.54 | 1.4382
x2 = 0.701 | 1214.73 | 1.4373
x2 = 0.7995 | 1184.91 | 1.4365
x2 = 0.9002 | 1154.7 | 1.4356
x2 = 0.9495 | 1139.97 | 1.4353

O=S1OCCO1 [1,3,2-dioxathiolane, 2-oxide] + O=C1OCCO1
318.15 K
Settings | mass density, [3] [kg/m3] | refractive index, [4]
x2 = 0.0492 | 1403.48 | 1.4358
x2 = 0.0998 | 1399.66 | 1.435
x2 = 0.2011 | 1391.76 | 1.4333
x2 = 0.3 | 1383.61 | 1.4315
x2 = 0.4024 | 1374.81 | 1.4297
x2 = 0.5005 | 1366.04 | 1.4278
x2 = 0.5994 | 1356.86 | 1.4259
x2 = 0.6997 | 1347.14 | 1.4238
x2 = 0.8005 | 1337 | 1.4217
x2 = 0.8996 | 1326.62 | 1.4196
x2 = 0.9494 | 1321.21 | 1.4185

COC(=O)OC [dimethyl carbonate]
298.15 K
Settings | mass density [kg/m3] | refractive index
[1] | 1060.87 | –
[2] | – | 1.3662

Settings | Normal melting temperature [°C]
[1] | 4.37

CCOC(=O)OC [ethyl methyl carbonate]
298.15 K
Settings | mass density [kg/m3] | refractive index
[1] | 1006.88 | –
[2] | – | 1.3754

Settings | Normal melting temperature [°C]
[1] | -51.47

O=C1OCCO1 [ethylene carbonate]
318.15 K
Settings | mass density [kg/m3] | refractive index
[1] | 1315.7 | –
[2] | – | 1.4172

Settings | Normal melting temperature [°C]
[1] | 37.41

O=C1CCCO1 [γ-butyrolactone]
298.15 K
Settings | mass density [kg/m3] | refractive index
[1] | 1124.97 | –
[2] | – | 1.4349

Settings | Normal melting temperature [°C]
[1] | -41.87
